According to PubChem BioAssay (NCI):
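Cells were grown in 96-well plates and exposed to each compound for 48 hours at five concentrations; endpoints were interpolated linearly between bracketing concentrations, or set to the highest concentration if not reached. The concentration for full growth arrest is given as TGI.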

Tests used:
Experiment in all cases: inhibition of tumour cell growth, NCI panel, 48 h
SF-268 CNS = test system: SF-268 CNS
OVCAR-8 ovarian = test system: OVCAR-8 ovarian
MDA-MB-231 breast = test system: MDA-MB-231 breast
NCI-H23 lung = test system: NCI-H23 lung
CCRF-CEM leukemia = test system: CCRF-CEM leukemia
OVCAR-3 ovarian = test system: OVCAR-3 ovarian
UO-31 renal = test system: UO-31 renal
786-0 renal = test system: 786-0 renal
NCI-H460 lung = test system: NCI-H460 lung
SNB-75 CNS = test system: SNB-75 CNS
SF-295 CNS = test system: SF-295 CNS
SK-MEL-5 melanoma = test system: SK-MEL-5 melanoma
SK-OV-3 ovarian = test system: SK-OV-3 ovarian
NCI/ADR-RES ovarian = test system: NCI/ADR-RES ovarian
COLO 205 colon = test system: COLO 205 colon
SR leukemia = test system: SR leukemia
BT-549 breast = test system: BT-549 breast
MOLT-4 leukemia = test system: MOLT-4 leukemia

Structure (SMILES)	TGI (SF-268 CNS)	TGI (OVCAR-8 ovarian)	TGI (MDA-MB-231 breast)	TGI (NCI-H23 lung)	TGI (CCRF-CEM leukemia)	TGI (OVCAR-3 ovarian)	TGI (UO-31 renal)	TGI (786-0 renal)	TGI (NCI-H460 lung)	TGI (SNB-75 CNS)	TGI (SF-295 CNS)	TGI (SK-MEL-5 melanoma)	TGI (SK-OV-3 ovarian)	TGI (NCI/ADR-RES ovarian)	TGI (COLO 205 colon)	TGI (SR leukemia)	TGI (BT-549 breast)	TGI (MOLT-4 leukemia)
CCOC(=O)c1c2ccccc2n2c(=O)n(C)nnc12	> 100 µM	> 100 µM	> 100 µM	> 100 µM	> 100 µM	> 100 µM	> 100 µM	> 100 µM	> 100 µM	> 100 µM	> 100 µM	> 100 µM	> 100 µM	> 100 µM	> 100 µM	> 90.7 µM	> 100 µM	–
COC(=O)c1ccc(/C=N/c2cc(C)nn2-c2ccccc2)cc1	> 100 µM	> 100 µM	> 100 µM	> 100 µM	> 100 µM	38.7 µM	> 100 µM	> 100 µM	37.3 µM	96.8 µM	> 100 µM	83.2 µM	> 100 µM	> 100 µM	43 µM	> 100 µM	> 100 µM	> 100 µM
O=C(Nc1ccccc1)N1CC(CN2CCN(c3ccccc3)CC2)OC1=O (stereo not drawn)	> 100 µM	–	> 100 µM	> 100 µM	> 100 µM	–	> 100 µM	> 100 µM	> 100 µM	–	> 100 µM	> 100 µM	> 100 µM	> 100 µM	> 100 µM	> 100 µM	> 100 µM	> 100 µM
c1csc(-c2cc(-c3ccsc3)c(-c3cccs3)s2)c1	> 100 µM	> 100 µM	> 100 µM	> 100 µM	> 100 µM	> 100 µM	> 100 µM	> 100 µM	> 100 µM	> 100 µM	> 100 µM	> 100 µM	–	> 100 µM	82.5 µM	> 100 µM	> 100 µM	> 100 µM
CCOC(=O)C1C(=O)CC(C)(O)C(C(=O)OCC)C1c1ccc(O)c(OC)c1 (stereo not drawn)	> 100 µM	> 100 µM	> 100 µM	> 100 µM	> 100 µM	> 100 µM	> 100 µM	> 100 µM	> 100 µM	> 100 µM	> 100 µM	> 100 µM	–	> 100 µM	> 100 µM	> 100 µM	> 100 µM	> 100 µM
O=C(/C=C/c1ccc(O)c(O)c1)Oc1ccccc1	32 µM	38.2 µM	61.8 µM	46.2 µM	42.8 µM	47.6 µM	30.5 µM	48.1 µM	51 µM	44.2 µM	61.4 µM	33 µM	> 100 µM	43.5 µM	29.2 µM	24.8 µM	53.6 µM	> 48.4 µM
N[C@H]1CCc2c1nc1c(c2-c2ccccc2)CC[C@@H]1N	59.8 µM	> 100 µM	66 µM	61.6 µM	40.7 µM	–	–	28.6 µM	> 100 µM	29.5 µM	45.5 µM	29.7 µM	–	> 100 µM	44.2 µM	> 100 µM	28.1 µM	27.6 µM
Cn1c2nc(=Nc3ccc(Cl)cc3)n3ccc4ccccc4c3c2c(=O)n1-c1ccccc1	> 100 µM	> 100 µM	> 100 µM	> 100 µM	–	> 100 µM	> 100 µM	> 100 µM	> 100 µM	> 100 µM	> 100 µM	> 100 µM	–	> 100 µM	> 100 µM	> 100 µM	> 100 µM	> 100 µM
CC(C)Nc1n[nH]c(=O)n1C(C)C	> 100 µM	> 100 µM	> 100 µM	> 100 µM	> 100 µM	> 100 µM	> 100 µM	> 100 µM	> 100 µM	> 100 µM	> 100 µM	> 100 µM	> 100 µM	> 100 µM	> 100 µM	> 100 µM	> 100 µM	> 100 µM
C1CSCCSS[C@@H]2CCCCC2SC1 (stereo partly drawn)	> 100 µM	> 100 µM	> 100 µM	> 100 µM	> 100 µM	> 100 µM	> 100 µM	> 100 µM	> 100 µM	> 100 µM	> 100 µM	> 100 µM	> 100 µM	> 100 µM	> 100 µM	> 100 µM	> 100 µM	> 100 µM
COc1ccc(CCNC(=O)Cc2ccccc2CCO)cc1OC	> 100 µM	> 100 µM	> 100 µM	> 100 µM	> 100 µM	> 100 µM	> 100 µM	> 100 µM	> 100 µM	> 100 µM	> 100 µM	> 100 µM	> 100 µM	> 100 µM	> 100 µM	> 100 µM	> 100 µM	> 100 µM
COc1ccc(-c2c(N)n(-c3cc(OC)cc(OC)c3)c(=O)c3cc([N+](=O)[O-])ccc23)cc1	> 100 µM	> 100 µM	> 100 µM	> 100 µM	> 100 µM	> 100 µM	> 100 µM	> 100 µM	> 100 µM	> 100 µM	> 100 µM	> 100 µM	> 100 µM	> 100 µM	> 100 µM	> 100 µM	> 93.6 µM	> 100 µM
COC(=O)c1c(C)cccc1C1CN=NC12Cc1c(C)cccc1C2=O (stereo not drawn)	> 100 µM	> 100 µM	> 100 µM	> 100 µM	> 100 µM	> 100 µM	> 100 µM	> 100 µM	> 100 µM	> 100 µM	> 100 µM	> 100 µM	> 100 µM	> 100 µM	> 100 µM	> 100 µM	> 100 µM	> 100 µM
